In ChEMBL document CHEMBL6121021, “Design and Synthesis of Topoisomerases-Histone Deacetylase Dual Targeted Quinoline-Bridged Hydroxamates as Anticancer Agents” (J Med Chem, 2025):
Active and inactive are the calls of the source. The calls are words filed in the database; no cut-off is given here.

Tests used:
HT-29 = assay: cells; format: functional, cell-based; conditions: Homo sapiens, HT-29, 48 h
MDA-MB-231 [1] = assay: Anti-cancer activity against human MDA-MB-231 cells assessed as increase in let7a mRNA level by qPCR analysis; format: functional, cell-based
MDA-MB-231 [2] = assay: cells; format: functional, cell-based; conditions: Homo sapiens, MDA-MB-231, 48 h
Supercoiled DNA = assay: Binding affinity to supercoiled DNA (unknown origin) assessed as DNA intercalation measured after 30 mins by gel electrophoresis; format: nucleic-acid assay
[3] = biological target: T1, DNA topoisomerase 1 (Homo sapiens) (UniProt P11387); assay: Inhibition of human Topo I-mediated relaxation of supercoiled DNA preincubated for 30 mins followed by proteinase K addition measured after 30 mins by gel electrophoresis; conditions: time 60.0 min
T1 sequence (whole entry): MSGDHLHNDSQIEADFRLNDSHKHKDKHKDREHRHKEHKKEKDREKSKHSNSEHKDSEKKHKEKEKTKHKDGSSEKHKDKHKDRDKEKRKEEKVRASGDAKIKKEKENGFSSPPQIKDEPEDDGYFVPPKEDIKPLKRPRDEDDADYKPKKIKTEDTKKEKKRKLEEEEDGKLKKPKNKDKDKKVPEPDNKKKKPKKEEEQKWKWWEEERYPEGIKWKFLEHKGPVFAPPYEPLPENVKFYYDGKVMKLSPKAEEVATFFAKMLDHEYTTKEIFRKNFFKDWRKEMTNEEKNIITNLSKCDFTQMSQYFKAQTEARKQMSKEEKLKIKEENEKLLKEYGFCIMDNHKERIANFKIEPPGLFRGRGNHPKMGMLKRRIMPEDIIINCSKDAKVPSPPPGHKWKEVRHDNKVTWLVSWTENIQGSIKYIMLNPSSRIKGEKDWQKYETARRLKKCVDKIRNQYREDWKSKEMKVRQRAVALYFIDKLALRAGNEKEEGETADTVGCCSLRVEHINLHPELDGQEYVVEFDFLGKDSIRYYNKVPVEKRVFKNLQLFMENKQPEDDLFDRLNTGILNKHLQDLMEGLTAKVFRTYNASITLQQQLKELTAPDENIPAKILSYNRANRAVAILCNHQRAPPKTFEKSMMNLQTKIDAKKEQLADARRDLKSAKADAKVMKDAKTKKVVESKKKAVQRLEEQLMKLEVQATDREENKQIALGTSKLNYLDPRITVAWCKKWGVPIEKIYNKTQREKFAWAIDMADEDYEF

A549 [4] = assay: Effect on mitochondrial membrane permeability in human A549 cells assessed as decrease in red to green fluorescence ratio at sub-IC50 incubated for 48 hrs by JC-1 staining based analysis; format: functional, cell-based
[5] = biological target: T2, Protein deacetylase HDAC6 (Homo sapiens, UniProt Q9UBN7); assay: Inhibition of HDAC6 (unknown origin) using acetylated-peptide substrate by fluorometric assay
T2 sequence (Q9UBN7 whole entry): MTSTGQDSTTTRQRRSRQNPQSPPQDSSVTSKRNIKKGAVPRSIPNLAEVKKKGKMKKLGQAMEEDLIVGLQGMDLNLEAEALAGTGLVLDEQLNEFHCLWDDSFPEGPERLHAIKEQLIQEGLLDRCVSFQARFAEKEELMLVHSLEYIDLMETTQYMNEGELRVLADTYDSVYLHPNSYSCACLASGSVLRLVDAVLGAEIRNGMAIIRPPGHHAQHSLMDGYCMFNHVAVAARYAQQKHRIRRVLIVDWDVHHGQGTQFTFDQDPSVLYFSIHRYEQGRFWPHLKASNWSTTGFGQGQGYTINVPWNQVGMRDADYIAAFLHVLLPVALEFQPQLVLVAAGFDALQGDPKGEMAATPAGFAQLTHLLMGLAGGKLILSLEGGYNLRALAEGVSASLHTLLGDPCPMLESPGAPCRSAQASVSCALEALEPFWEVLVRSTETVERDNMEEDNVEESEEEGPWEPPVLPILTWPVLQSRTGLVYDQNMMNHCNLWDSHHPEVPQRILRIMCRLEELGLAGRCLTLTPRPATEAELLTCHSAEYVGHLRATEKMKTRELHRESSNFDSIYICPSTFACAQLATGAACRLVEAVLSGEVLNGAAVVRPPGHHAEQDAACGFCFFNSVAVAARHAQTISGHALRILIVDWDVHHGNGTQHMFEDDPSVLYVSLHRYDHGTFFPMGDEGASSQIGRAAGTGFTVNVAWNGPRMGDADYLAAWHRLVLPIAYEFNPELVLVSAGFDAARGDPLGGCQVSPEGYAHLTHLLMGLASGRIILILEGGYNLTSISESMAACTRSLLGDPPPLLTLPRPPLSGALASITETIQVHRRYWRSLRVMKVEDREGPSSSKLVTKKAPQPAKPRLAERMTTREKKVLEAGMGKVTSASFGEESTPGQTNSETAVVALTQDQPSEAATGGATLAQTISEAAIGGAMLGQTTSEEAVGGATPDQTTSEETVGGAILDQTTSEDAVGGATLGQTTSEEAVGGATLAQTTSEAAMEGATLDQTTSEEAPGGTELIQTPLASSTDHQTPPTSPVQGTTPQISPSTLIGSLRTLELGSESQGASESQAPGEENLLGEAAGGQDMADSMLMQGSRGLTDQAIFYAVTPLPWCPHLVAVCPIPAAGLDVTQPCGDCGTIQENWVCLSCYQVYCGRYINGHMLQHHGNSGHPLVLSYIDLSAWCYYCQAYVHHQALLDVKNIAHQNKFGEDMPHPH

Histone deacetylase 1 = Histone deacetylase 1 (Homo sapiens, UniProt Q13547); assay: Inhibition of HDAC1 extracted from human A549 nucleus incubated for 1 hr by fluorometric assay; format: cell-free
[6] = biological target: DNA topoisomerase 2-alpha (Homo sapiens, UniProt P11388); assay: Inhibition of human Topo II-alpha-mediated decatenation of kDNA at 100 uM incubated for 30 mins
A549 [7] = assay: Induction of ROS generation in human A549 cells incubated for 48 hrs by DCFH-DA staining based analysis; format: functional, cell-based
A549 [8] = assay: Induction of ROS generation in human A549 cells incubated for 48 hrs by Cell Rox red staining based flow cytometry; format: functional
A549 [9] = assay: Anti-cancer activity against human A549 3D cell culture model assessed as inhibition of 3D culture initiation at sub- IC50 incubated for 21 days with replacement of medium containing compound on every seventh day; format: functional, cell-based; conditions: time 21.0 day

Sequence of Histone deacetylase 1 (Q13547 whole entry): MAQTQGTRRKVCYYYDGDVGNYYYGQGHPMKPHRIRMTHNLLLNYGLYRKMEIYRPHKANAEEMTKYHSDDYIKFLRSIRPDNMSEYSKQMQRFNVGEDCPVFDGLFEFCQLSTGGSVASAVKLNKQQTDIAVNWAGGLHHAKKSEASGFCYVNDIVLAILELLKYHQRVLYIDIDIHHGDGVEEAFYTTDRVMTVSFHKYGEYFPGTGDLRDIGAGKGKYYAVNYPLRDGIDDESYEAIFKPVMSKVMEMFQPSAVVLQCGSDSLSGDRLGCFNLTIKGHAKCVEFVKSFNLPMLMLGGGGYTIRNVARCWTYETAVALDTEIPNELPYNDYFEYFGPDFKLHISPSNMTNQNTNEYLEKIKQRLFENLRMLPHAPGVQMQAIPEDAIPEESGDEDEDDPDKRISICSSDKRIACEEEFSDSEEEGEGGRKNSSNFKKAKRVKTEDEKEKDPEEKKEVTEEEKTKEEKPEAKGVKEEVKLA
Sequence of DNA topoisomerase 2-alpha (P11388 whole entry): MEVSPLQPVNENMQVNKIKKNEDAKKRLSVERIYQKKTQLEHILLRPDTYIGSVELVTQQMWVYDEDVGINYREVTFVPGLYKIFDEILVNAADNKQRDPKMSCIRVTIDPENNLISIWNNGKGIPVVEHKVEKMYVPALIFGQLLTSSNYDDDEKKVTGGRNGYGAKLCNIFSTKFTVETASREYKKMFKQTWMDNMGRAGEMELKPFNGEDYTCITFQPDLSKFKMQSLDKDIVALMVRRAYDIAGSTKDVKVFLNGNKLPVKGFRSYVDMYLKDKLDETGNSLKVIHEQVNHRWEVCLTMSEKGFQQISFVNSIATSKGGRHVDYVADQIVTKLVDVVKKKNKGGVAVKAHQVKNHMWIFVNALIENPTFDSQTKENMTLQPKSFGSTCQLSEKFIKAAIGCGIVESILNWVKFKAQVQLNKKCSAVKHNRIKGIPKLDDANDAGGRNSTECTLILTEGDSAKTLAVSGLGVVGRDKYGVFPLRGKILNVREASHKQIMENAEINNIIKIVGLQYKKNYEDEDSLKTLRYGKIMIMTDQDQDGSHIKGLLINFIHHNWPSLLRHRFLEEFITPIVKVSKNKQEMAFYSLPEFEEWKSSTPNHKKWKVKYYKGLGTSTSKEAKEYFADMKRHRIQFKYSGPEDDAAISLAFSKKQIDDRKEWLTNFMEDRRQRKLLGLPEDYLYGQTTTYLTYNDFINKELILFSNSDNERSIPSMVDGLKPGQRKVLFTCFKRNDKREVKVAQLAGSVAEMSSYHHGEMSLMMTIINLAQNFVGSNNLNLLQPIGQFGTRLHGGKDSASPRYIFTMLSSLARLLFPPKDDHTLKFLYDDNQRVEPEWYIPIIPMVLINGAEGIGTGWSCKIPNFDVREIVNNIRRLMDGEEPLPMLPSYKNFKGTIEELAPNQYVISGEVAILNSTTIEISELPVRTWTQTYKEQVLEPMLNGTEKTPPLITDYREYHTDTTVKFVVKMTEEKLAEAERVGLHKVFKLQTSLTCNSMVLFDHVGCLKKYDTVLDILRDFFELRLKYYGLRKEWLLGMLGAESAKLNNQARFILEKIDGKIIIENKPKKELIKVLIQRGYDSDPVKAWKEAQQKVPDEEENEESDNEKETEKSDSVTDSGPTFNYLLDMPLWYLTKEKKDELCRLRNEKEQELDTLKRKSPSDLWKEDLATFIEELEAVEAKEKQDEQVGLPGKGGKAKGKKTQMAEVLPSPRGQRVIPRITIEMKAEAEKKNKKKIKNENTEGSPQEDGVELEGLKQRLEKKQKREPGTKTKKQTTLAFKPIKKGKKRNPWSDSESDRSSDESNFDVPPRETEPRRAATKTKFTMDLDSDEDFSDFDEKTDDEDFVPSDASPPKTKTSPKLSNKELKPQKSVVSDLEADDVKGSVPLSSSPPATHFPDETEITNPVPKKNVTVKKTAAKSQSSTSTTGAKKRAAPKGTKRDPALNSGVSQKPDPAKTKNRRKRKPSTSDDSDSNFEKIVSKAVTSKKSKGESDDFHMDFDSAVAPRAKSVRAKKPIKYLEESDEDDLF

Structure (SMILES)	IC50 (HT-29)	Activity (MDA-MB-231 [1])	IC50 (MDA-MB-231 [2])	Activity (Supercoiled DNA)	inhibition [3]	Activity (A549 [4])	IC50 [5]	IC50 (Histone deacetylase 1)	inhibition [6]	Activity (A549 [7])	Activity (A549 [8])	inhibition (A549 [9])
COc1ccc(-c2ccc3cc(OCCCCCC(=O)NO)ccc3n2)cc1	5760 nM	Active	879 nM	inactive	Active	Active; Result Signifies That Cell Death Induced Via Mitochondrial-Dependent Pathways	22.9 nM	11.9 nM	Active; Observed As More Active Than Etoposide	Active	Active	Active
COc1ccc(-c2ccc3ccc(OCCCCCCC(=O)NO)cc3n2)cc1I	1860 nM	Active	1550 nM	inactive	Active	Not active; Result Signifies That Cell Death Induced Via Mitochondrial-Independent Pathways	137 nM	36.2 nM	Active; Observed As More Active Than Etoposide	Active	Active	Active
